Activity calls are given as the source filed them. No rule for the calls is given here.

This assay has as its system Trypanosoma brucei growth inhibition. The experiment in a line: T. brucei growth inhibition (AID 1159557).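 Also: parasites exposed to compound for 48 h before the resazurin readout.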
`O=c1cc(CSc2ccc(Cl)cc2)nc(-c2ccccn2)[nH]1`: the concentration for half-maximal inhibition (IC50) is 790 nM.

On to `O=C(Nc1cccc(S(=O)(=O)Nc2ccc(Br)cc2)c1)c1ccc([N+](=O)[O-])s1`, for which the IC50 is 200 nM.

`CCc1c(C)nc(-n2nc(C)cc2NC(=O)COc2ccccc2F)[nH]c1=O`: the 50% inhibitory concentration (IC50) is 160 nM.

Regarding `Fc1ccc(Nc2nc(-c3ccccn3)cs2)cc1`, the IC50 is 25000 nM.

With `NC(=O)c1ccccc1Nc1nc(NC2CCCCC2)nc2[nH]ccc12`, the half-maximal inhibitory concentration (IC50) was 500 nM.

Consider `Cc1nc(-c2nc(NCc3ccc(Cl)cc3)c3cccnc3c2O)n[nH]1`, for which the IC50 was 630 nM.

For the molecule `CCCNC(=O)Nc1cccc(-c2nc3ncccc3o2)c1`, the IC50 was 500 nM.

`N#Cc1ccc(C(=O)Nc2cccc(-c3cccc(CN4CCC(O)CC4)c3)c2)cc1`: the concentration for half-maximal inhibition (IC50) was 790 nM.

With `Cc1nn(-c2nc(N)nc(-c3ccccn3)n2)c(N)c1-c1ccccc1`, the concentration for half-maximal inhibition (IC50) was 2000 nM.

Turning to `CC(C)Nc1nc(Cl)nc2ccccc12`, the IC50 was 5000 nM.

Consider `CC1(C)CCC(=Cc2ccc(Cl)cc2)CC1(O)Cn1ccnc1` (configuration not stated), for which the half-maximal inhibitory concentration (IC50) was 10000 nM.

As to `CC(=O)NCCNc1cc(-c2ccnc(Nc3cccc(Cl)c3)n2)ccn1`, the IC50 is 200 nM.

As for `N#Cc1cc([N+](=O)[O-])ccc1NC1CCCCCC1`, the IC50 is 2500 nM.

`O=C(Nc1cccc(Cl)c1)N1CCCCC1c1cccnc1` (configuration not stated): the IC50 was > 40000 nM (inactive).

For `O=C(N[C@H](CO)c1ccccc1)c1ccc(-c2c[nH]c3nccc(C(F)(F)F)c23)s1`, the IC50 is 160 nM.

Regarding `O=C(Nc1nc(-c2ccccn2)cs1)c1ccc(S(=O)(=O)N2CCCCC2)cc1`, the IC50 was 400 nM.

For the molecule `O=C(Cc1ccccc1)Nc1[nH]nc2sc(C(=O)NC3CCCC3)cc12`, the IC50 is 400 nM.

`COc1ccc2c(Cl)c(C(=O)N3CCC3)sc2c1Cl`: the IC50 is 20000 nM.

As to `Cc1ccc(Nc2nc(C3CCCN3Cc3ccn[nH]3)cs2)nc1` (configuration not stated), the IC50 is 790 nM.

`CS(=O)(=O)NC1CCC(Oc2cc3cnccc3cc2-c2ccsc2)CC1` (configuration not stated): the IC50 is 16000 nM.

As for `NCc1ccc2c(Cl)cc(Cl)c(O)c2n1`, the IC50 was 400 nM.

Turning to `O=C(COc1nn(-c2ccccc2)c2ncccc12)NCc1ccccc1`, the IC50 was > 40000 nM (inactive).

As to `O=C(Nc1ncc([N+](=O)[O-])s1)C1CC1`, the IC50 is 7900 nM.

On to `CCC(=O)Nc1ccccc1C(=O)Nc1ccccn1`, for which the IC50 was 320 nM.

In the case of `COc1ccc(C(=O)Nc2c(C)nn(COc3cccc(C(F)(F)F)c3)c2C)cc1`, the IC50 is 790 nM.

`COc1cc(C2SCC(=O)Nc3c2c(C)nn3-c2nc3ccccc3s2)cc(OC)c1O` (configuration not stated): the IC50 is 6300 nM.

For the molecule `O=C(NCC1CCCCN1C(=O)c1cccc2ccccc12)c1ccccc1` (configuration not stated), the IC50 was 400 nM.

On to `Cc1cc2nc(N3CC[C@H]3C(N)=O)nc(Nc3cc(C4CC4)[nH]n3)c2s1`, for which the IC50 was 79 nM.

For `CCC(CC)C(=O)Nc1cccc(C(=O)Nc2nnc(C3CCCCC3)s2)c1`, the IC50 was 250 nM.

For `COCc1cc(Nc2ccccc2)nc(-c2ccccn2)n1`, the IC50 was > 40000 nM (inactive).

As to `O=C(NCCc1ccn(-c2ccccc2)n1)C1CCCCC1`, the IC50 is 250 nM.

For `CC1CCCN(S(=O)(=O)c2ccc(C(=O)Nc3nc(-c4ccccn4)cs3)cc2)C1` (configuration not stated), the 50% inhibitory concentration (IC50) is 200 nM.

On to `Clc1ccc(CN2CCN(C3=NCCN3)CC2)cc1Cl`, for which the IC50 was > 40000 nM (inactive).

On to `COc1ccnc2[nH]cc(-c3cc(C(=O)N[C@H](CO)c4ccccc4)co3)c12`, for which the half-inhibitory concentration (IC50) is 5 nM.

Consider `CC(c1ccccn1)N(C)Cc1nc2ccccc2n1C(C)C` (configuration not stated), for which the IC50 is 13000 nM.

For the molecule `O=C(Nc1ccc(Br)cn1)c1ccc(Cn2cnc([N+](=O)[O-])n2)cc1`, the IC50 is 1600 nM.

Turning to `O=C1CN(Cc2ccco2)C2CS(=O)(=O)CC2N1c1ccc(Cl)cc1` (configuration not stated), the 50% inhibitory concentration (IC50) is 320 nM.

Take `CC(=O)Nc1cccc(Nc2ncnc3nc[nH]c23)c1`: the concentration for half-maximal inhibition (IC50) was 130 nM.

`CCN(CC)c1ccc(S(=O)(=O)N(CC)CC)c2nonc12`: the IC50 is 25000 nM.

As to `Cc1c([N+](=O)[O-])c(C(=O)Nc2sc3c(c2C#N)CCC(C)C3)nn1C` (configuration not stated), the IC50 is > 40000 nM (inactive).

`CS(=O)(=O)c1ccc(Nc2nccc(-c3cnn4ncccc34)n2)cc1`: the 50% inhibitory concentration (IC50) is 160 nM.

For the molecule `COc1ccccc1-c1c(C)[nH]c2nc(N)nc(C)c12`, the IC50 was 25000 nM.

Take `Cc1cc2nc(CN(C)Cc3ncccc3C)[nH]c2cc1C`: the IC50 was 630 nM.

Take `COc1ccc(NS(=O)(=O)c2cc(NC(=O)Cc3ccc(C)cc3)ccc2N2CCOCC2)cc1`: the half-maximal inhibitory concentration (IC50) was 5000 nM.

With `COc1ccc(NS(=O)(=O)c2cc(NC(=O)c3ccc([N+](=O)[O-])s3)ccc2OC)cc1`, the concentration for half-maximal inhibition (IC50) was 50 nM.

With `CNC(=O)C1Cc2ccccc2N1C(=O)Cc1ccc(F)cc1` (configuration not stated), the IC50 was 250 nM.

Take `O=C(Nc1ccccc1C(=O)Nc1ccccn1)c1ccco1`: the 50% inhibitory concentration (IC50) was 250 nM.

For the molecule `O=C(Nc1n[nH]c(-c2ccccn2)n1)C1CC1c1ccccc1` (configuration not stated), the IC50 is > 13000 nM (inactive).

Consider `Clc1cc(Br)ccc1OCCCCn1ccnc1`, for which the IC50 was 10000 nM.

For the molecule `CC(C)C[C@H](NC(=O)c1csc(-c2cccs2)n1)C(=O)NC1(C#N)CC1`, the half-maximal inhibitory concentration (IC50) was 160 nM.

On to `COCCn1cnc2cc(NC(=O)C3CCCCC3)cc(C(=O)N3CCc4sccc4C3)c21`, for which the concentration for half-maximal inhibition (IC50) is 790 nM.

Consider `O=C1NCCn2ccc(Nc3nc(NC4CCC(O)CC4)ncc3Cl)c21` (configuration not stated), for which the half-inhibitory concentration (IC50) is 500 nM.

For `O=C(CN(Cc1ccccn1)Cc1ccccn1)NC1Cc2ccccc2C1`, the half-maximal inhibitory concentration (IC50) is 20000 nM.

`Cc1ccc(S(=O)(=O)Cn2nnnc2C(c2cccnc2)N2CCN(c3ccccc3)CC2)cc1` (configuration not stated): the IC50 was 32000 nM.

In the case of `COc1ccc(CN2CCCCC2c2nc(-c3cccnc3)no2)cc1` (configuration not stated), the IC50 is > 40000 nM (inactive).

Regarding `Cc1nc2c(-c3cccs3)c(C)nn2c(NCCO)c1C`, the IC50 was 130 nM.

Regarding `Cc1cc(NC(=O)C2CC2)ccc1OC1CCN(Cc2ccco2)CC1`, the half-maximal inhibitory concentration (IC50) was 130 nM.

For the molecule `CC(=O)Nc1ccc(-c2csc(NC(=O)c3ccc([N+](=O)[O-])s3)n2)cc1`, the half-maximal inhibitory concentration (IC50) is 25 nM.

Take `COc1ccc(CN(C)Cc2ccncc2)cc1-c1ccc(S(=O)(=O)NC2CCC2)s1`: the IC50 was > 40000 nM (inactive).

For the molecule `COc1ccc(C(C)N(C)c2ncc3c(N)nc(N)nc3n2)cc1F` (configuration not stated), the IC50 is 13000 nM.

With `COc1ccc([N+](=O)[O-])cc1NC(=O)Nc1cccc(Cl)c1`, the IC50 is 6300 nM.

With `COc1ccccc1C1CC(c2ccc(NS(C)(=O)=O)cc2)=NN1C(=O)c1cccs1` (configuration not stated), the half-inhibitory concentration (IC50) was 16000 nM.

For `COc1cccc(C(=O)[C@H]2C[C@@H]2CN(Cc2ccccn2)Cc2ccccn2)c1`, the half-inhibitory concentration (IC50) is 16000 nM.

`Cc1cc(Nc2cc(C3CC3)[nH]n2)nc(N2CCC[C@H]2C(N)=O)n1`: the IC50 is 13 nM.

With `O=C(Nc1cccc(F)c1)N1CCC(Oc2cccc(-c3cccnc3)c2)CC1`, the half-inhibitory concentration (IC50) was 25000 nM.

Regarding `COc1ccc(-c2cnc(NC(=O)c3cc(-c4ccccn4)n[nH]3)n2C)cc1`, the IC50 was 400 nM.

In the case of `COc1ccc(C2CC(c3ccc(NS(C)(=O)=O)cc3)=NN2C(=O)c2cccs2)cc1OC` (configuration not stated), the half-inhibitory concentration (IC50) was 16000 nM.

As to `Oc1cccnc1-c1n[nH]c(Cc2ccccc2)n1`, the 50% inhibitory concentration (IC50) was 5000 nM.

As to `O=C1CN(C(=O)c2cccc(Nc3ncc(-c4ccc5c(c4)OCO5)cn3)c2)CCN1`, the IC50 is > 50000 nM (inactive).

In the case of `CC(Cn1ccnc1)NC(=O)C1CC1c1cccc(Cl)c1Cl` (configuration not stated), the IC50 is > 40000 nM (inactive).

As to `O=C(Cn1cnc2cc([N+](=O)[O-])ccc2c1=O)NCCc1ccc(Cl)cc1Cl`, the IC50 is 13000 nM.

Turning to `CC(C)c1cc(Nc2cc(Cc3ccccc3)nc(NC3CCC(O)CC3)n2)n[nH]1` (configuration not stated), the half-maximal inhibitory concentration (IC50) was 79 nM.

On to `O=C(CN(c1cccc(C(F)(F)F)c1)S(=O)(=O)c1ccc(Cl)cc1)NCc1ccc(F)c(F)c1`, for which the IC50 is 10000 nM.

`O=C1CN(C2CCCc3c(OCc4ccncc4)cccc32)C(=O)N1C1CCCCC1` (configuration not stated): the IC50 was 16000 nM.

As for `CNc1nc(C)nc(N2CCc3cc(C(=O)NCc4ccc(-c5ccn[nH]5)cc4Cl)ccc32)n1`, the IC50 was 13000 nM.

For the molecule `CCC(CC)C(=O)Nc1ccc(-c2nnc(-c3ccc(OC)cc3)o2)cc1`, the half-inhibitory concentration (IC50) was 500 nM.

With `Cc1cc(Oc2cc(Cl)c(Cl)cc2Cl)n2ncnc2n1`, the concentration for half-maximal inhibition (IC50) is 790 nM.

Regarding `Cc1nn(C2CCS(=O)(=O)C2)c(C)c1CN(C)C(=O)C=Cc1sc2ccccc2c1Cl` (configuration not stated), the half-inhibitory concentration (IC50) is 10000 nM.

Regarding `Cc1cn[nH]c1C1CCCN(Cc2nc3ccccc3n2C)C1` (configuration not stated), the IC50 is 6300 nM.

For the molecule `Cc1ccccc1NS(=O)(=O)c1ccc2[nH]cc(C(=O)NC3CCCC(C)C3C)c(=O)c2c1` (configuration not stated), the IC50 was 320 nM.

As for `O=[N+]([O-])c1ccc(C2=CC(c3ccccc3)=NCCN2)cc1`, the IC50 is 6300 nM.

Regarding `COCc1cc(Nc2ccc(Cl)cc2)nc(-c2ccccn2)n1`, the IC50 is 20000 nM.

Take `COc1ccc(-c2cnc(NC(=O)c3ccc(F)cc3)n2C)cc1`: the IC50 was 1300 nM.

With `COc1ccc(Cl)cc1CC(=O)Nc1n[nH]c(-c2ccccn2)n1`, the IC50 was 16000 nM.

As for `Cc1cc(C#N)c([N+](=O)[O-])cc1Br`, the concentration for half-maximal inhibition (IC50) was 790 nM.

For `O=[N+]([O-])c1ccc(-c2nnn(-c3cccnc3)n2)o1`, the IC50 is 320 nM.

For `COc1ncc(-c2ccc3nccc(-c4ccncc4)c3c2)cc1NS(C)(=O)=O`, the 50% inhibitory concentration (IC50) is 320 nM.

In the case of `CC(C(=O)Nc1ccc(Br)cc1)N1CCN(c2ccc([N+](=O)[O-])cc2)CC1` (configuration not stated), the IC50 is > 40000 nM (inactive).

Turning to `COc1cccc(Nc2cc(C)nc(-c3ccccn3)n2)c1`, the IC50 was > 40000 nM (inactive).

For `O=C(c1ccc(O)c(Cl)c1)N1CCN(c2cnccn2)CC1`, the IC50 was > 40000 nM (inactive).

As to `Cc1cc(N(C)C)nc2ccc(Cc3cnc(N)nc3N)cc12`, the 50% inhibitory concentration (IC50) was 5000 nM.

In the case of `COCCn1c(-c2ccc3c(c2)OCO3)cnc1NCc1ccccc1OC`, the IC50 is 20000 nM.

Take `CN(CC1CCCO1)S(=O)(=O)c1ccc(C(=O)Nc2nc(-c3ccccn3)cs2)cc1` (configuration not stated): the concentration for half-maximal inhibition (IC50) is 500 nM.

Take `O=[N+]([O-])c1cccc(Nc2cncc(-c3ccccc3CO)c2)c1`: the IC50 was > 40000 nM (inactive).

On to `COc1cccc(C(=O)[C@H]2C[C@@H]2CN(Cc2cccnc2)Cc2cccnc2)c1`, for which the IC50 is 32000 nM.

In the case of `NCc1csc(Nc2cc(Oc3ccccc3)ncn2)n1`, the IC50 was 630 nM.

As to `CN(Cc1nc2ccccc2s1)C(=O)C=Cc1cc2ccccc2o1`, the half-maximal inhibitory concentration (IC50) was 32000 nM.

The values are drawn from PubChem BioAssay AID1159557 (GlaxoSmithKline (GSK), 2015).
